Reference: the supplement of paper PMC11919725

Legend:
[1] = test system: Primary T cells CD4+ naive; experiment: metabolic activity relative to DMSO, 18 h (ratio); higher = more viable
How it was run: (§1)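 Metabolic activity values are normalised to the average of vehicle control wells. They come from Jurkat or primary CD4+/CD8+ T cells (naive, or activated 48 h with CD3/CD28 Dynabeads) treated for 18 h at 37 °C, 5% CO2 with compound over 1 nM–10 µM in log10 steps. Then 100 µl of each suspension was mixed in 96-well plates with alamarBlue (10% v/v final), and fluorescence at 544 nm excitation and 584 nm emission was recorded on a FluoStar Omega 3.5 h later.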

Jurkat [2] = experiment: as above
How it was run: as §1

[3] = test system: Primary T cells CD4+ naive; experiment: confluency relative to DMSO, 18 h (ratio); higher = more viable
How it was run: (§2)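 Jurkat cells or primary CD4+/CD8+ T cells, either naive or activated for 48 h with CD3/CD28 Dynabeads, were exposed to compound from 1 nM to 10 µM in log10 steps for 18 h at 37 °C and 5% CO2. Afterwards, 100 µl of each suspension was moved into 96-well plates containing IncuCyte Cytotox Dye and alamarBlue. Phase-contrast images were taken at ×10, five per well, every hour for 3 h. Confluency was derived from these images with the IncuCyte Basic Analyzer, and values are expressed relative to the mean of the control wells.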

Jurkat [4] = experiment: as above
How it was run: as §2

[5] = test system: Primary T cells CD4+ naive; experiment: cytotoxicity relative to DMSO, 18 h (ratio); higher = less cell death (drugs called cytotoxic fall below 1)
How it was run: (§3)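 Fluorescence was imaged at ×10, five images per well, every hour for 3 h, in 96-well plates holding 100 µl of treated cell suspension and IncuCyte Cytotox Dye at 250 nM final. Before plating, Jurkat cells or primary CD4+/CD8+ T cells (naive, or activated 48 h with CD3/CD28 Dynabeads) had been treated for 18 h with compound across 1 nM–10 µM in log10 steps at 37 °C, 5% CO2. Cytotoxicity values were based on these IncuCyte signals after confluency correction and normalisation to the mean of control wells.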

Jurkat [6] = experiment: as above
How it was run: as §3

Compound | metabolic activity ([1]; 1 nM) | metabolic activity ([1]; 10 nM) | metabolic activity ([1]; 100 nM) | metabolic activity ([1]; 1000 nM) | metabolic activity ([1]; 10000 nM) | metabolic activity (Jurkat [2]; 1 nM) | metabolic activity (Jurkat [2]; 10 nM) | metabolic activity (Jurkat [2]; 100 nM) | metabolic activity (Jurkat [2]; 1000 nM) | metabolic activity (Jurkat [2]; 10000 nM) | confluency ([3]; 1 nM) | confluency ([3]; 10 nM) | confluency ([3]; 100 nM) | confluency ([3]; 1000 nM) | confluency ([3]; 10000 nM) | confluency (Jurkat [4]; 1 nM) | confluency (Jurkat [4]; 10 nM) | confluency (Jurkat [4]; 100 nM) | confluency (Jurkat [4]; 1000 nM) | confluency (Jurkat [4]; 10000 nM) | cytotoxicity ([5]; 1 nM) | cytotoxicity ([5]; 10 nM) | cytotoxicity ([5]; 100 nM) | cytotoxicity ([5]; 1000 nM) | cytotoxicity ([5]; 10000 nM) | cytotoxicity (Jurkat [6]; 1 nM) | cytotoxicity (Jurkat [6]; 10 nM) | cytotoxicity (Jurkat [6]; 100 nM) | cytotoxicity (Jurkat [6]; 1000 nM) | cytotoxicity (Jurkat [6]; 10000 nM)
CCCCc1nc2cc(C=CC(=O)NO)ccc2n1CCN(CC)CC [Pracinostat] | 0.982 | 0.951 | 0.917 | 0.946 | 0.877 | 1.09 | 0.964 | 1.03 | 0.737 | 0.621 | 0.744 | 1.13 | 1.29 | 1.05 | 0.873 | 0.945 | 0.95 | 0.862 | 1.04 | 0.908 | 0.794 | 1.19 | 1.38 | 1.03 | 0.897 | 0.918 | 0.836 | 0.799 | 1.02 | 0.852
CC(C)(CNC(=O)c1cccc(-c2noc(C(F)(F)F)n2)c1)c1coc(-c2ccccc2)n1 [TMP195] |  |  |  |  |  | 1.02 | 0.877 | 0.921 | 0.94 | 1.02 |  |  |  |  |  | 1.02 | 0.934 | 1.08 | 1.04 | 1.02 |  |  |  |  |  | 0.995 | 0.915 | 1.12 | 1.06 | 1.06
O=C(NCC1(c2nc(-c3ccccc3)cs2)CCOCC1)c1cccc(-c2noc(C(F)(F)F)n2)c1 [TMP269] |  |  |  |  |  | 0.923 | 0.987 | 1.04 | 1.06 | 1.03 |  |  |  |  |  | 0.997 | 1.08 | 0.985 | 0.978 | 0.947 |  |  |  |  |  | 0.968 | 1.06 | 0.951 | 0.93 | 0.891
CC(=O)Nc1ccc(C(=O)Nc2ccccc2N)cc1 [Tacedinaline] |  |  |  |  |  | 0.978 | 0.926 | 0.943 | 0.899 | 0.757 |  |  |  |  |  | 0.975 | 1.05 | 1.01 | 0.986 | 0.994 |  |  |  |  |  | 0.902 | 0.979 | 0.958 | 0.905 | 0.942
Cn1ncnc1C1c2n[nH]c(=O)c3cc(F)cc(c23)NC1c1ccc(F)cc1 (stereo not given) [Talazoparib] |  |  |  |  |  | 1.02 | 0.958 | 1.05 | 1.07 | 1.03 |  |  |  |  |  | 0.992 | 1 | 0.967 | 0.939 | 0.897 |  |  |  |  |  | 0.986 | 1.01 | 0.96 | 0.97 | 0.848
